Key:
in vitro = conditions: human
Procedure: Metabolic stability assay
Hepatic microsomal stability assays were conducted by Charles River Laboratories. Assays were performed in duplicate.
The stability of the test compound (1 µM) was measured following incubation at 37 °C with […] (0.5 mg protein/mL) in the presence of the cofactor, NADPH.
Incubates were prepared in duplicate, with aliquots removed at 0, 5, 10, 20 and 40 minutes and reactions terminated, and the compound was extracted by the addition of solvent. The disappearance of the parent compound was be monitored by LC-MS/MS and the half-life determined over the time-course of incubation. The half-life value was used to calculate the in vitro intrinsic clearance expressed as µL/min/mg protein.
Table S11. Metabolic Stability Data
Half- Half- Half- Clint Clint Mean Clint
Compound Cofactor life life Life (uL/min/mg (uL/min/mg (uL/min/mg Species (min) (min) (min) protn) n=1 protn) n=2 protn) (results)

[1] = test system: calcineurin in the presence of Cyclophilin A; assay: Calcineurin inhibition assay (phosphatase activity in the presence of Cyclophilin A); assay type: biochemical; conditions: in vitro calcineurin phosphatase activity assay
Procedure: Calcineurin inhibition assay
Calcineurin inhibition assays were conducted by Eurofins Integrated Discovery UK Ltd (EID) to determine the effect of compounds on the activity of calcineurin in the presence of Cyclophilin A. Assays were performed in duplicate, with IC50 values calculated from mean […]
Compounds were diluted with and without immunophilin (CypA) in a 96-well plate. After addition of calcineurin/calmodulin complex, the plate was incubated at 30 °C for 10 minutes.
The addition of the RII phosphopeptide substrate initiated the reaction, and the plate was […]
The reaction was stopped by the addition of Malachite green reagent. The plate was incubated at room temperature to allow colour development (5 – 20 mins). After sufficient colour has developed, the absorbance is read at 620 nm. Blank subtracted absorbance readings are plotted against compound concentration to determine IC50 values or % inhibition at the top concentration.

Human Cyclophilin A = Human Cyclophilin A (Homo sapiens, UniProt P62937); assay: PPIase TR-FRET competitive binding assay
Procedure: PPIase TR-FRET competitive binding assay
Cyclophilin A assays were conducted by Eurofins Integrated Discovery UK Ltd (EID) to determine the inhibitory activity of the analogues against the Human Cyclophilin A in a TR-FRET Competitive Binding assay. Assays were performed in duplicate, with Kd values calculated from mean averages. […]
binding to the CypA enzyme: the CypA enzyme, tagged with a polyhistidine sequence, forms a complex with an anti-6xHis antibody labelled with a fluorescent donor, F(d), and the enzyme […]
Compounds are diluted from DMSO stocks to 50-fold the final concentration and then in assay buffer to 2-fold the final assay plate concentration. An equal volume of compound is added to the master mix in the assay plate containing the enzyme/antibody/ligand complex, with a final concentration of detergent of 0.01%. This is incubated for 30 mins at room temperature and the plate read at 2 wavelengths (A and B) to detect emission from F(d) and F(a), respectively. The ratio B/A is calculated, blank subtracted and either expressed as a percentage of the ‘no inhibitor’ control or the blank subtracted values are plotted against the inhibitor concentration in Log10 Molar and fitted using one site Ki nonlinear regression to determine the Kd. Where possible, compound Kds are determined from duplicate data points. Each assay plate is set up with ‘no enzyme’ blanks and ‘no inhibitor’ controls, which are used to determine the Z’ value for each plate.

T cell proliferation = conditions: Fig. 1a; cited from earlier work
Source text: Fig. 1 Evolution of a strategy for one-carbon alkene homologation. a, The effect of homologues on biological activity: side chain length compared with immunosuppressive activity in a family of natural products. b, Homologation processes for common functional groups. c, Generally adopted sequence for alkene homologation. d, Design plan for a catalytic one-carbon alkene homologation process. TEXT PRINTED IN THE PICTURE: (a) R = CH3 FK-523 (FR-900523): T cell proliferation IC50 (nM): 2.72 | (a) R = CH2CH3 FK-520 (ascomycin): T cell proliferation IC50 (nM): 0.69 | (a) R = CH2CH2CH3: T cell prolife ...

Chain of Human Cyclophilin A (P62937 whole entry): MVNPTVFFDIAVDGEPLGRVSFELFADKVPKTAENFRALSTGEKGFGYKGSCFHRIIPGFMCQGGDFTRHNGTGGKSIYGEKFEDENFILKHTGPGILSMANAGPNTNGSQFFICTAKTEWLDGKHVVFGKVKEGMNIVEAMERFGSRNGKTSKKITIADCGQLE

SMILES | Clint (uL/min/mg protn) n=1 (in vitro) | Clint (uL/min/mg protn) n=2 (in vitro) | Half-life (min) n=1 (in vitro) | Half-life (min) n=2 (in vitro) | Mean Clint (uL/min/mg protn) (in vitro) | IC50 (T cell proliferation) | further results
Cc1ncc2n1-c1ccc(Cl)cc1C(c1ccccc1F)=NC2 [Midazolam, reference compound] | 277 | 277 | 5 min | 5 min | 277 | – | Half-Life (min) (Mean) (in vitro): 5 min
CC[C@@H]1NC(=O)[C@H]([C@H](O)[C@H](C)CC/C=C\F)N(C)C(=O)[C@H](C(C)C)N(C)C(=O)[C@H](CC(C)C)N(C)C(=O)[C@H](CC(C)C)N(C)C(=O)[C@@H](C)NC(=O)[C@H](C)NC(=O)[C@H](CC(C)C)N(C)C(=O)[C@H](C(C)C)NC(=O)[C@H](CC(C)C)N(C)C(=O)CN(C)C1=O [compound 24] | 48 uL/min/mg protn | 53 uL/min/mg protn | 29 min | 26 min | 51 uL/min/mg protn | – | decrease in phosphatase activity compared with cyclosporine A [1]: 10 fold
C=CCCC[C@@H](C)[C@@H](O)[C@H]1C(=O)N[C@@H](CC)C(=O)N(C)CC(=O)N(C)[C@@H](CC(C)C)C(=O)N[C@@H](C(C)C)C(=O)N(C)[C@@H](CC(C)C)C(=O)N[C@@H](C)C(=O)N[C@H](C)C(=O)N(C)[C@@H](CC(C)C)C(=O)N(C)[C@@H](CC(C)C)C(=O)N(C)[C@@H](C(C)C)C(=O)N1C [compound 26, homoisocyclosporine A] | 69 uL/min/mg protn | 65 uL/min/mg protn | – | – | 67 uL/min/mg protn | – | calcineurin inhibition compared with cyclosporine A (in words) [1]: restored calcineurin inhibition to levels comparable with those of cyclosporine A; Kd (Human Cyclophilin A): 10.2 nM
[2H]C([2H])([2H])/C=C/CC[C@@H](C)[C@@H](O)[C@H]1C(=O)N[C@@H](CC)C(=O)N(C)CC(=O)N(C)[C@@H](CC(C)C)C(=O)N[C@@H](C(C)C)C(=O)N(C)[C@@H](CC(C)C)C(=O)N[C@@H](C)C(=O)N[C@H](C)C(=O)N(C)[C@@H](CC(C)C)C(=O)N(C)[C@@H](CC(C)C)C(=O)N(C)[C@@H](C(C)C)C(=O)N1C [compound 23] | 44 uL/min/mg protn | 45 uL/min/mg protn | 32 min | 31 min | 44 uL/min/mg protn | – | Kd (Human Cyclophilin A): 45.9 nM; half-life at 1 µM (in vitro; both, liver microsomes): 31 min
COc1ccc2c(c1)[C@]13CCCC[C@@H]1[C@H](C2)N(C)CC3 [Dextromethorphan, reference compound] | 29 | 29 | 49 min | 47 min | 29 | – | Half-Life (min) (Mean) (in vitro): 48 min
C=CC[C@@H]1/C=C(\C)C[C@H](C)C[C@H](OC)[C@H]2O[C@@](O)(C(=O)C(=O)N3CCCC[C@H]3C(=O)O[C@H](/C(C)=C/[C@@H]3CC[C@@H](O)[C@H](OC)C3)[C@H](C)[C@@H](O)CC1=O)[C@H](C)C[C@@H]2OC [Tacrolimus, tacrolimus] | – | – | – | – | – | 0.18 nM | –
CCCC1C=C(C)CC(C)CC(OC)C2OC(O)(C(=O)C(=O)N3CCCCC3C(=O)OC(C(C)=CC3CCC(O)C(OC)C3)C(C)C(O)CC1=O)C(C)CC2OC (stereo not shown) [R = CH2CH2CH3] | – | – | – | – | – | 0.93 nM | –
CC[C@@H]1/C=C(\C)C[C@H](C)C[C@H](OC)[C@H]2O[C@@](O)(C(=O)C(=O)N3CCCC[C@H]3C(=O)O[C@H](/C(C)=C/[C@@H]3CC[C@@H](O)[C@H](OC)C3)[C@H](C)[C@@H](O)CC1=O)[C@H](C)C[C@@H]2OC [FK-520, ascomycin] | – | – | – | – | – | 0.69 nM | –
CO[C@H]1C[C@@H](C)C/C(C)=C\[C@@H](C)C(=O)C[C@H](O)[C@@H](C)[C@@H](/C(C)=C/[C@@H]2CC[C@@H](O)[C@H](OC)C2)OC(=O)[C@@H]2CCCCN2C(=O)C(=O)[C@]2(O)O[C@H]1[C@@H](OC)C[C@H]2C [FK-523] | – | – | – | – | – | 2.72 nM | –

From publication PMC12221989, “One-carbon homologation of alkenes” (Nature, 2025)
